pIC50: −log10 of the molar value.
How the values were obtained:
[1] = U.S. Pat. Nos. 4,515,795 and 4,576,947; cited from earlier work
[2] = system: polymorphonuclear leukocytes; settings: in response to a stimulator of chemotaxis; U.S. Pat. No. 4,636,507; cited from earlier work
TNF = settings: human, in vivo; cited from earlier work
[3] = system: ras-transformed NIH/3T3 cells
PAPH = PAPH blockade in a specific activation pathway; type: cell-based, human; settings: specific activation pathway that does not involve PI
Source text: The compounds and pharmaceutical compositions of the invention include inhibitors of subspecies of LPAAT and PAPH enzymes with substrate specificity for intermediates with 1,2-diunsaturated and 1-alkyl, 2-unsaturated subspecies. One representative example of such an inhibitor (although not within the genus of inventive compounds) is PTX. […] It should be emphasized that the compounds of the invention affect that subset of PAPH and LPAAT that relates to substrates with unsaturated fatty acids other than arachidonate in the sn-2 position, not the housekeeping forms of these enzymes that serve the PI pathway.

LPAAT = assay: formation of remodeled PA (LPAAT), in vitro; type: cell-based; settings: high PTX concentrations
Source text: Even in the presence of PTX, cells continue to form PA through the action of PLD, and DAG is also formed through the action of phospholipase C on PC and PI. The latter pathway are not inhibited by the inventive compounds or PTX. In PTX-treated cells, DAG derived from remodeled and PLA-generated PA is diminished (e.g., 1,2-sn-dioleoyl DAG, 1-alkyl,2-linoleoyl DAG and 1-alkyl,2-docosahexaneolyl DAG). Therefore, the inventive compounds and PTX inhibit the formation of only a certain species of PA and DAG by selectively inhibiting a specific second messenger pathway that is only activated in cells by noxious stimuli, but is not used to signal normal cellular housekeeping functions.

[4] = system: ras-transformed NIH/3T3 cells; assay: serum-stimulated generation of DAG and PA in ras-transformed NIH/3T3 cells; type: cell-based; settings: pretreatment of cells
Source text: For example, activating ras mutations result in increased generation of DAG on stimulation with mitogens, although the sources of DAG have differed between experimental systems. In nontransformed renal mesangial cells, IL-1β stimulation increased PLA2 and LPAAT activation, resulting in generation of sn-2 unsaturated PA and subsequent hydrolysis to DAG by phosphatidate phosphohydrolase. The ras transformation in NIH/3T3 cells upregulates serum-stimulated generation of DAG and PA. The specific species of DAG that is stimulated by serum is dioleoyl and for PA are dilinoleoyl and dioleoyl. […] The inhibition occurs either through suppressing the generation of PA de novo from lysoPA, or through inhibition of one or both arms of the Lands cycle. […] Therefore, the ras transformation mediates an upregulation of PA through indirect stimulation of PLA2 and/or LPAAT activity.

murine splenocytes = assay: inhibition of murine splenocyte proliferation stimulated by anti-mu and IL-4; type: cell-based; settings: FIG. 5; anti-mu (10 μg/ml) and IL-4 (12.5 ng/ml)
Method: Drug was added to the cells at the doses indicated two hours prior to activation with anti-mu and IL-4. This in vitro assay is a model for immune suppression and treatment or prevention of autoimmune diseases. […] Background counts were less than 200 cpm.
There are a series of in vitro assays that can be used to measure immunosuppressive activity of a particular compound. These assays are a predictive model for treatment or prevention of autoimmune diseases, such as diabetes, lupus, arthritis, and the like. A first assay measures immunosuppressive activity of a drug at the B cell level. Spleens from adult mice contain immature B cells that express surface IgM. Cross-linking the surface IgM with an anti-mu antibody results in B cell proliferation. Additionally, this activation results in an increased expression of interleukin-4 receptors(IL-4R) on the surface of such cells. IL-4 acts as a growth factor for B cells and will increase the amount of proliferation induced by anti-mu. In the first assay, a mixture of anti-mu and murine IL-4 is added to murine splenocytes to cause their proliferation. Mice spleens are obtained from adult mice and a single cell suspension is prepared in RPMI 1640 medium supplemented with 10% FCS. […] Proliferation is determined on the third day with a pulse of tritiated thymidine. […]

human stromal cells = assay: inhibition of proliferation of human stromal cells stimulated with PDGF; type: cell-based
Method: (§1) This assay is a model for restenosis and treatment of atherosclerosis and coronary artery disease. Stromal cells were starved in serum-free media for one day and then stimulated with 50 ng/ml PDGF-BB. The drags were added at the indicated concentrations one hour prior to PDGF stimulation. Tritiated thymidine was added for one day at the time of PDGF stimulation and the cells were harvested and counted by liquid scintillation counting 24 hrs later. Background counts (i.e., starved cells) were approximately 1% of control levels.
Another assay for measuring activity of the inventive compounds involves determining PDGF (platelet derived growth factor) proliferative response using human-derived stromal cells. Human stromal cells are plated (e.g., about 2000 cells per well) in defined media (e.g., 69% McCoy's, 12.5% fetal calf serum, 12.5% horse serum, 1% antibiotics, 1% glutamine, 1% vitamin supplement, 0.8% essential amino acids, 1% sodium pyruvate, 1% sodium bicarbonate, 0.4% non-essential amino acids and 0.36% hydrocortisone). Two to three days later, the stromal cells are starved in serum-free media. Twenty four hours later, the cells are treated with a stimulating agent, such as PDGF-AA, PDGF-BB or basic FGF (fibroblast growth factor) with or without IL-1α or TNF, and tritiated thymidine. Cell proliferation is determined by liquid scintillation counting.
as §1, with “drugs” for “drags”

[5] = system: mixed lymphocyte assay culture (PBMC); assay: percent viable cells in mixed lymphocyte assay culture after six days; type: cell-based, human; settings: 100 μM
Method: Control cells that have not been exposed to a drug are generally 78 to 85% viable under such culture conditions. For this graph, all of the compounds were present at 100 μM, which is usually well above their IC50 concentration in this assay (see FIG. 1).

murine thymocytes = assay: inhibition of murine thymocyte proliferation stimulated by ConA and IL-1α; type: cell-based, murine (Balb/C mice); settings: FIG. 4, 4 days
Method: The drugs (inventive compounds) were added to the cells at the doses indicated two hours prior to activation with ConA and IL-1α. […] Background counts were less than 200 cpm. This in vitro assay is a model for immune suppression and treatment or prevention of autoimmune diseases.
A third assay measures an ability of an inventive compound to inhibit IL-2-induced proliferation of murine thymocytes. Thymus glands are obtained from 4-6 week old mice and plated as a single cell suspension into flat bottomed wells in RPMI 1640 medium supplemented with 10% fetal calf serum. The inventive compounds are added to appropriate wells and the cells are incubated for 1-2 hrs. Concanavilin A (ConA, 0.25 μg/ml) and IL-1 (20 ng/ml) are added and the plates are incubated for 4 days. Cell proliferation is determined as above. There are also variations for this assay that follow the same basic stimulation and measure inhibition of proliferation format. […]
This example illustrates the effect of CT1514, CT1525, CT1527, CT1529, CT1577, CT1583, CT1589, CT1595, CT2519, CT1205, CT1801 and CT1908 on inhibition of murine thymocyte proliferation stimulated by Concanavalin A (ConA) and interleukin-2 (IL-2) (FIG. 4). […] The cells were harvested and incorporated tritiated thymidine was determined in a liquid scintillation counter. […]

[6] = system: TNF release from monocytes in whole blood; assay: ex vivo human TNF model, LPS-mediated TNF release in whole blood; type: cell-based; settings: FIG. 14
Method: (§2) This model adds LPS to whole blood (normal human volunteers) to trigger a dose-dependent synthesis and extracellular release of TNF according to Desch et al. (Lymphokine Res. 8:141, 1989). The ex vivo model examines whether LPS-mediated release of TNF from monocytes in whole blood can be block by an inventive compound.
An ex vivo human sepsis model is described in Desch et al., Lymphokine Res. 8:141, 1989 and in Ooi et al., J. Exp. Med. 174:649, 1991. Briefly, whole blood from humans is incubated with LPS (endotoxin). TNF released from cells (mostly from monocytes) is measured. The inventive compounds lower TNF levels as compared with untreated controls in this model.
as §2, with “This example illustrates a comparative experiment comparing CT1595, CT1529 and CT2519 in an ex vivo human TNF model described herein. This assay is a predictive model for treatment and prevention of septic shock and sepsis syndrome. This” for “This”

[7] = system: CMV promoter activity in transformed (adenovirus) cells; assay: CMV promoter assay (gene transcription and translation, cytotoxic activity); type: cell-based
Source text: This example illustrates data regarding proliferative activity of various inventive compounds for inducting CMV promoter activity. The CMV promoter assay measures gene transcription and translation activity wherein any active compounds will nave cytotoxic activity to inhibit cellular protein synthesis machinery in transformed (adenovirus) cells.

SMILES | cerebral blood flow [1] | stimulation of chemotaxis in polymorphonuclear leukocytes [2] | TNF levels in normal volunteers (TNF) | cytotoxicity associated with inhibition of ras-transformed cells [3] | inhibition of ras-transformed NIH/3T3 cells ([3]; vs parental cells) | PAPH block (PAPH) | formation of remodeled PA (LPAAT) | generation of phospholipid second messengers (DAG, PA) [4] | inhibition of splenocyte proliferation (murine splenocytes) | inhibition of human stromal cell proliferation (human stromal cells; FIG. 7, 50 ng/ml PDGF-BB, in words) | pIC50 (human stromal cells; Homo sapiens, read-out: IC50, inhibition of human stromal cell proliferation) | viability in MLR culture [5] | inhibition of thymocyte proliferation (murine thymocytes) | block of LPS-mediated TNF release [6] | cytotoxicity in CMV promoter assay ([7]; in words) | IC50 ([7]; read-out: IC50 (μM), CMV promoter assay) [µM]
CC(O)CCCCn1c(=O)c2c(ncn2C)n(C)c1=O (centres unmarked) [M1, 1-(5-hydroxyhexyl)-3,7-dimethylxanthine] | increasing cerebral blood flow | stimulate chemotaxis | – | – | – | – | – | – | – | – | – | – | – | – | – | –
CC(=O)CCCCn1c(=O)c2c(ncn2C)n(C)c1=O [PTX, 1-(5-oxohexyl)-3,7-dimethylxanthine] | – | stimulate chemotaxis | TNF levels were higher among PTX recipients | not associated with significant cytotoxicity | inhibits ras-transformed NIH/3T3 cells more than parental cells | blocks PAPH | blocks formation of remodeled PA | blocks generation of these phospholipid second messengers | – | – | – | – | – | – | – | –
CC(CCCCn1c(=O)c2c(ncn2C)n(C)c1=O)N=C=S (centres unmarked) [CT2519, 1-(5-isothiocyanatohexyl)-3,7-dimethylxanthine] | – | – | – | – | – | – | – | – | most potent inhibitors of splenocyte proliferation in a dose-response manner | strongly inhibit proliferation | > 5.00 | not cytotoxic at 100 μM | most potent drugs | could block TNF release in a dose-dependent fashion | most cytotoxic compound tested | 10

Reference: patent US5670506A, “Halogen, isothiocyanate or azide substituted xanthines” (Cell Therapeutics, Inc., priority 1993, dated 1997)
